Measured values: patent US20120074014A1, “PRODUCT TYPICALLY BASED ON SALT OF PEROXYMONOSULFURIC ACID AND SUITABLE FOR MEDICINAL USAGE, AND ASSOCIATED PRODUCT FABRICATION” (LuTran Industries, Inc., priority 2010, published 2012)
Like-named read-outs stand apart in the source and are kept apart here.

Legend:
[1] = tested on: osteoarthritis; assay: Example B: case treatment of osteoarthritis, complete-body immersion; format: in vivo, human; settings: earlier treatment tried by the patient; patient report
Source text: (§1) Given below are examples of using the medicinal drug of type I/II for treating allergic rhinitis, osteoarthritis, gouty arthritis, bronchitis, hemorrhoids, urticaria, toothache, tinea pedis, acute viral nasopharyngitis, herpes simplex, dandruff, itching, bromhidrosis, and vaginitis. The formulation of the drug of type I/II used in these examples was the preferred formulation, mentioned above, in which the drug was formed with potassium hydrogen peroxymonosulfate as the active oxygen-releasing material, sodium chloride as the inorganic halide, sodium hexametaphosphate as the alkali metal phosphate, sulfamic acid, malic acid as the non-reducing organic acid, and sodium dodecylbenzene sulfonate as the surfactant at approximately the typical mass percentages mentioned above. A formulation approximating this formulation is commercially available in the product Virkon. This formulation of the drug of type I/II is referred to below as the “Medicine”. […]

[2] = tested on: vaginitis; assay: Example N: case treatment of vaginitis, vaginal immersion; format: in vivo, human; settings: earlier treatment tried by the patient; patient report
Source text: as §1

[3] = tested on: dandruff; assay: Example K: case treatment of dandruff, scalp scrubbing; format: in vivo, human; settings: earlier treatment tried by the patient; (some of) these decreased the amount of dandruff; patient report
Source text: Given below are examples of using the medicinal drug of type I/II for treating allergic rhinitis, osteoarthritis, gouty arthritis, bronchitis, hemorrhoids, urticaria, toothache, tinea pedis, acute viral nasopharyngitis, herpes simplex, dandruff, itching, bromhidrosis, and vaginitis. […] A formulation approximating this formulation is commercially available in the product Virkon. This formulation of the drug of type I/II is referred to below as the “Medicine”.
The Medicine for each person infected with allergic rhinitis, osteoarthritis, gouty arthritis, bronchitis, hemorrhoids, urticaria, toothache, tinea pedis, acute viral nasopharyngitis, herpes simplex, dandruff, itching, bromhidrosis, and vaginitis is provided for topical, intranasal, oral, or/and injection administration 1-12 times per day, preferably 1-8 times per day, more preferably 1-6 times per day, typically 1-4 times per day, in liquid form at a dosage of 0.00001-5%, preferably 0.001-3%, more preferably 0.1-2%, typically 0.5-1%, for a time of contact of 1 minute-12 hours, preferably 1 minute-6 hours, more preferably 1 minute-2 hours, typically 1-30 minutes.
The Medicine was provided to […] as a 1% solution for topical administration by scrubbing the Medicine into their scalp and hair for 5 minutes and then washing their scalp and hair. The […] reported that they administered the Medicine to themself in the foregoing manner 4 times a week for 2 weeks.

[4] = tested on: simian vacuolating virus 40; settings: Sporkenbach, U.S. Pat. No. 4,404,191; cited from earlier work
[5] = tested on: coxsackie virus; settings: Sporkenbach, U.S. Pat. No. 4,404,191; cited from earlier work
[6] = tested on: poliovirus; settings: Sporkenbach, U.S. Pat. No. 4,404,191; cited from earlier work
[7] = tested on: adenovirus; settings: Sporkenbach, U.S. Pat. No. 4,404,191; cited from earlier work
[8] = cited from earlier work

Molecule: N[C@H]1C(O)O[C@H](CO)[C@@H](O)[C@@H]1O (some centres unmarked) [glucosamine]
- relief of osteoarthritis by earlier treatments [1]: without effective relief

Molecule: C[C@]12CCC(=O)C=C1CC[C@@H]1[C@@H]2[C@@H](O)C[C@@]2(C)[C@H]1CC[C@]2(O)C(=O)CO [hydrocortisone]
- success of earlier treatments for vaginitis [2]: without significant success

Molecule: CC(=O)N1CCN(c2ccc(OCC3COC(Cn4ccnc4)(c4ccc(Cl)cc4Cl)O3)cc2)CC1 (centres unmarked) [ketoconazole]
- dandruff after earlier treatments [3]: still visible

Molecule: O=S(=O)([O-])OO.[K+] [potassium hydrogen peroxymonosulfate]
- inactivation of simian vacuolating virus 40 [4]: inactivated
- inactivation of coxsackie virus [5]: inactivated
- inactivation of poliovirus [6]: inactivated
- inactivation of adenovirus [7]: inactivated

Molecule: S=[Se]=S [selenium sulfide]
- dandruff after earlier treatments [3]: still visible

Molecule: potassium monopersulfate triple salt
- loss of active oxygen content per month ([8]; anhydrous solid, reported in Tufano): roughly 1%
- loss of active oxygen content per month ([8]; solutions (solvent presumably high-purity water), Tufano and Durante): 3-5%

Molecule: zinc pyrithione
- dandruff after earlier treatments [3]: still visible
